US12702712B2, “Enteroendocrine cell-targeting polymer substance conjugated with photosensitizer, and medical use thereof for ameliorating metabolic disease” (The Catholic University of Korea Industry-Academic …, priority 2020, dated 2026)

How the values were obtained:
[1] = Singlet oxygen formation in aqueous phase (SOSG fluorescence, laser irradiation); details: 5 μg/mL in aqueous phase with SOSG; laser 670 nm, 4 J/cm^2, 20 mW/cm^2, 200 seconds
Method: Singlet oxygen sensor green (SOSG), which is a fluorescent detecting substance that directly reacts with singlet oxygen, was dispersed in an aqueous phase, oleic acid-polyethylene glycol-chlorin e6 (5 μg/mL) was added thereto, and the resulting mixture was mixed. As a comparative example, chlorin e6 (5 μg/mL) or polyethylene glycol-chlorin e6 (5 μg/mL) was used. When OA-PEG-Ce6 and SOSG coexisted in the aqueous phase, the mixture was irradiated with a laser (670 nm) (4 J/cm^2, 20 mW/cm^2, 200 seconds), and the degree of fluorescence was measured by an RF analyzer.

[2] = Dispersion in aqueous phase; format: physicochemical; details: water
[3] = system: Human duodenal cells (HUTU-80); assay: Intracellular uptake by flow cytometry; format: cell-based; details: 2 μg/ml (based on chlorin e6), 1 hour and 4 hours
Method: Thereafter, the cells were treated with OA-PEG-Ce6 and polyethylene glycol-chlorin e6 as a comparative group at a concentration of 2 μg/ml (based on chlorin e6) for 1 hour and 4 hours, respectively. Thereafter, the cells were washed three times with DPBS, collected, and analyzed by a flow cytometer (BD FACSCanto II).

[4] = system: Human duodenal cells (HUTU-80); assay: Intracellular distribution by confocal laser scanning microscopy; format: cell-based; details: 2 μg/ml (based on chlorin e6), 1 hour; CLSM
Method: (§1) Human duodenal cells (HUTU-80) and canine kidney epithelial cells (MDCK) were treated with OA-PEG-Ce6 and polyethylene glycol-chlorin e6 at a concentration of 2 μg/ml (based on chlorin e6) for 1 hour. Thereafter, the cells were washed three times with DPBS and fixed with 4% paraformaldehyde, and the cell nuclei were stained at 4° C. Thereafter, cell images were confirmed under a confocal laser scanning microscope (CLSM).

[5] = system: canine kidney epithelial cells (MDCK); assay: as above; format: cell-based; details: 2 μg/ml (based on chlorin e6), 1 hour; CLSM
Method: as §1

[6] = system: Human duodenal cells (HUTU-80); assay: Intracellular active oxygen formation (DCFDA, confocal microscope); format: cell-based; details: 2 μg/ml (based on chlorin e6), 2 hours, light 0, 0.5, 1 and 1.5 J/cm^2, increasing intensity
Method: Thereafter, the cells were treated with OA-PEG-Ce6 at a concentration of 2 μg/ml (based on chlorin e6) for 2 hours, and washed three times with DPBS. The cells were treated with DCFDA diluted in DPBS, cultured for 30 minutes, and further washed three times with DPBS. The cells were irradiated with a light with an intensity of 0, 0.5, 1 and 1.5 J/cm^2 to induce a reaction between DCFDA incorporated into the cells and singlet oxygen. Fluorescence appears when the two substances react. Thereafter, the cells were fixed with 4% paraformaldehyde, the cell nuclei were stained with DAPI, and images were confirmed under a confocal microscope.

[7] = system: Human duodenal cells (HUTU-80); assay: Competitive inhibition of uptake in presence of fatty acid (flow cytometry); format: cell-based; details: 10 μg/ml (based on chlorin e6) with 0.10 to 10.00 mg/ml oleylethanolamine, 2 hours
Method: Thereafter, the cells were treated with both 0.10 to 10.00 mg/ml oleylethanolamine and 10 μg/ml OA-PEG-Ce6 (based on chlorin e6) and cultured for 2 hours. Thereafter, the cells were washed three times with DPBS, collected, and analyzed by a flow cytometer (BD FACSCanto II).

[8] = target: T1, HEK-293 cells expressing GPR119 (Homo sapiens, UniProt Q8TDV5); assay: Uptake according to GPR119 expression level (flow cytometry); format: cell-based; details: GPR119 expression vector 0, 4 and 8 μg, 2 μg/ml (based on chlorin e6)
T1 construct: expressed in transfected cells; host or cells: HEK-293
T1 sequence (Q8TDV5 1-335): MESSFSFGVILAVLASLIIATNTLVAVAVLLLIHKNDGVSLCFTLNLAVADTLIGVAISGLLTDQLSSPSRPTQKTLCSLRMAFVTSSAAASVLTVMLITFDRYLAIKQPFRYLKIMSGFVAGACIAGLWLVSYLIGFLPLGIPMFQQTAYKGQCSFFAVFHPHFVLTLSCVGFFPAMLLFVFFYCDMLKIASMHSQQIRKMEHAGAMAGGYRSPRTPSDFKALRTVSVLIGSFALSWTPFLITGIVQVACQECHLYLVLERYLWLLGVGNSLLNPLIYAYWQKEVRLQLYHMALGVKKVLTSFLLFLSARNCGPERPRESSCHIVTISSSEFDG
Method: In order to confirm the mechanism by which OA-PEG-Ce6 targets enteroendocrine cells, human fetal kidney cells (HEK-293) expressing G protein-coupled receptor 119 (GPR119), which is a receptor known to recognize fatty acids, were produced.
After 24 hours, a GPR119 expression vector (0, 4 and 8 μg) and polyethyleneimine (PEI) were added to a serum-free medium and mixed for 30 minutes so as to form a complex, and then each cell was treated with the complex for 4 hours. Thereafter, the medium was replaced with a medium containing bovine serum, and GPR119 was allowed to be expressed by culturing the cells for 48 hours. It was confirmed by western blotting whether GPR119 was expressed.
HEK-293 cells expressing GPR119 were treated with OA-PEG-Ce6 and polyethylene glycol-chlorin e6 as a comparative group at a concentration of 2 μg/ml (based on chlorin e6) for 1 hour and 4 hours, respectively. Thereafter, the cells were washed three times with DPBS, collected, and analyzed by a flow cytometer (BD FACSCanto II).

[9] = Obesity amelioration: body weight and fat mass after photodynamic therapy; format: in vivo, C57BL6 mice; details: high-fat diet mice, oral 10 mg/kg (based on chlorin e6), 22 days; for body weight, last day relative to before therapy, administration+light irradiation / fat mass, last day relative to before therapy, administration+light irradiation: laser 0.7 J/cm^2, repeated after 4 days; for fat mass, last day relative to before therapy, administration+light irradiation / fat mass, last day relative to before therapy, administration only: EchoMRI; for body weight, last day relative to before therapy, administration only / fat mass, last day relative to before therapy, administration only: no light
Method: After 4 days, photodynamic therapy was performed once again by the same method, and then, changes in body weight and fat mass were measured every other day for 22 days. The experimental results were shown in a bar graph by dividing the body weight and fat mass on the last day of the experiment by the body weight and fat mass before the photodynamic therapy and then converting the obtained values into percentages. Fat mass was measured with EchoMRI-500 (Echo MRI, Houston, TX).

GIP = assay: Plasma GIP by ELISA after photodynamic therapy; format: in vivo, C57BL6 mice; details: high-fat diet mice, oral 10 mg/kg (based on chlorin e6), after 22 days; for plasma GIP concentration, administration+light irradiation: laser 0.7 J/cm^2, repeated after 4 days; for plasma GIP concentration, administration only: no light
Method: (§2) After 4 days, photodynamic therapy was performed once again by the same method, and then, mouse blood was collected after 22 days. Plasma was isolated from blood to measure the concentrations of GIP (Merk Millipore, USA) and insulin (anti-insulin+pro insulin antibody (10 μg/ml, ab8304, Abcam)) by enzyme-linked immunosorbent assay (ELISA).

insulin = assay: Plasma insulin by ELISA after photodynamic therapy; format: in vivo, C57BL6 mice; details: high-fat diet mice, oral 10 mg/kg (based on chlorin e6), after 22 days; for plasma insulin concentration, administration+light irradiation: laser 0.7 J/cm^2, repeated after 4 days; for plasma insulin concentration, administration only: no light
Method: as §2

[10] = system: Human duodenal cells (HUTU-80)
Method: (§3) Human duodenal cells (HUTU-80) and canine kidney cells (MDCK) were aliquoted at a density of 1×10^4 cells/well in 0.2 ml portions in each well of a 96-well plate and cultured under conditions of 37° C. and 5% CO2 for 24 hours. On the next day, each well was treated with OA-PEG-Ce6 or polyethylene glycol-chlorin e6 at a concentration of 0.25 to 10 μg/ml (based on chlorin e6), and the corresponding treatment was performed by dividing a light non-irradiation group and a light irradiation group (irradiated with a laser with a wavelength of 671 nm at an intensity of 2 J/cm^2). Thereafter, cell viability was confirmed by the MTT test method.

[11] = mouse, in vivo, po, 10 mg/kg
Method: C57BL6 mice were fed a high-fat diet for 8 weeks to induce obese and diabetic conditions, and were divided into a control (PBS), a light irradiation group (Laser), a polyethylene glycol-chlorin e6 adiministration group (PC), a polyethylene glycol-chlorin e6 adiministration+light irradiation group (PCL), an OA-PEG-Ce6 adiministration group (OPC) and an OA-PEG-Ce6 adiministration+light sirradiation group (OPCL). Each group was orally administered the treated substance at a concentration of 10 mg/kg (based on chlorin e6), and after 30 minutes, a catheter was injected for endoscopic access and a laser was irradiated through the mouth.
Meanwhile, the accumulation degree of photosensitizer in the removed duodenum was confirmed with a fluorescence-labeled organism bioimaging instrument (Neo Science), and the fluorescence intensity of each tissue was graphically shown.

[12] = system: Human duodenal cells (HUTU-80); assay: Cytotoxicity and phototoxicity, MTT test; details: for treatment concentration at which cell viability decreased, light irradiation group: laser 671 nm, 2 J/cm^2, concentration based on chlorin e6
Method: as §3

[13] = system: canine kidney cells (MDCK); assay: Cytotoxicity and phototoxicity, MTT test; details: 0.25 to 10 μg/ml (based on chlorin e6), no light
Method: as §3

| Compound | dispersion in the aqueous phase [2] | body weight, last day relative to before therapy, administration+light irradiation [9] [%] | fat mass, last day relative to before therapy, administration+light irradiation [9] [%] | body weight, last day relative to before therapy, administration only [9] [%] | fat mass, last day relative to before therapy, administration only [9] [%] | plasma GIP concentration, administration+light irradiation (GIP) [pg/mL] | plasma GIP concentration, administration only (GIP) [pg/mL] | plasma insulin concentration, administration+light irradiation (insulin) [pg/mL] | plasma insulin concentration, administration only (insulin) [pg/mL] | treatment concentration at which cell viability decreased, light irradiation group [12] [µg/mL] | further results |
| --- | --- | --- | --- | --- | --- | --- | --- | --- | --- | --- | --- |
| C=Cc1c(C)c2cc3nc(c(CC(=O)O)c4[nH]c(cc5nc(cc1[nH]2)C(C)=C5CC)c(C)c4C(=O)O)[C@@H](CCC(=O)O)[C@@H]3C [chlorin e6] | could not be dispersed in the aqueous phase |  |  |  |  |  |  |  |  |  | ability to form active oxygen (singlet oxygen) [1]: could hardly form active oxygen |
| oleic acid-polyethylene glycol-chlorin e6 [OA-PEG-Ce6] | well dispersed in water | 83.6 | 47.2 | 91.1 | 62.8 | 177.7 | 435.5 | 758.0 | 210.5 | ≥ 0.5 | amount absorbed by the cells [3]: more absorbed by the cells than polyethylene glycol-chlorin e6 (PC); incorporation into cells versus conjugate without targeting substance [4]: more incorporated into cells than polyethylene glycol-chlorin e6 (PC); incorporation into HUTU-80 versus MDCK cells [5]: more incorporated into human duodenal cells (HUTU-80) than in canine kidney epithelial cells (MDCK); intracellular active oxygen generation (DCFDA green fluorescence) [6]: generated a large amount of active oxygen; intracellular uptake (fluorescence intensity) with increasing oleylethanolamine [7]: intracellular uptake was reduced; intracellular accumulation rate with increasing GPR119 expression [8]: partially increased; concentration at which cell viability decreased, light non-irradiation group [10]: ≥ 2500 ng/mL; accumulation degree of photosensitizer in the duodenum [11]: remarkably large amount of photosensitizer was accumulated |
| polyethylene glycol-chlorin e6 [reference compound] | well dispersed in water | 90.1 | 60.0 | 93.1 | 68.4 | 339.6 | 289.1 | 374.3 | 304.3 | ≥ 2.5 | change in cell viability, light non-irradiation group ([12]; 0.25 to 10 μg/ml (based on chlorin e6), no light): almost no change in cell viability; change in cell viability, light non-irradiation group [13]: no change in the cell viability |
